The values below come from patent publication US8540999B2, “Allergenic proteins and peptides from Japanese cedar pollen” (Merck Patent GmbH, priority 1991, dated 2013).

Series [1] is described as follows: Solubility, single pH point protocol procedure. In kind it is physicochemical. The conditions noted are these: 100 mM sodium phosphate buffer without mannitol, constant agitation. The procedure: (§1) Additional truncation of two C-terminal residues yielded 44.2 (SEQ ID NO: ). […] Thus, 44.2 (SEQ ID NO: ) was further modified by the addition of charged (hydrophilic residues) to the N-terminus and by replacement of the hydrophobic residue Val with the less hydrophobic residue Ala. […] CJI-44.8 (SEQ ID NO: 132) was stable and soluble at greater than 5 mg/ml over the pH range pH6-pH8 in an aqueous buffer.

The nature of series [2]: Stability in aqueous buffer. Type of series: physicochemical. To be noted: pH6 to pH8.
Excerpt: (§2) Of the above group of modified peptides, several peptides have been identified as “unique” modified peptides. […] Certain modified peptides are characterized as “unique” due to the difficulties encountered when developing a modified peptide which meets all of the stringent requirements of a “unique” peptide defined herein. In many cases, multiple modifications of a parent peptide are attempted prior to identifying a modified derivitive peptide which meets all the characteristics of a “unique” modified peptide. Unique modified peptides are particularly useful as candidate peptides for formulating injectable multipeptide therapeutic formulations of the invention because “unique” modified peptides are soluble and stable in the same physiologically acceptable pH range as well as elicit the necessary T cell reactivity of a therapeutic peptide of the invention. “Unique” modified peptides of the invention include but are not limited to the following group of modified peptides: CJ1-24.5, CJ1-43.39, CJ1-43.50, CJ1-44.8, and CJ1-44.9 all as shown in FIGS. 20 and 44. Example 21 describes the development and identification of “unique” modified peptides of the invention.
as §1

Series [3] in a line: Solubility, pH range protocol procedure. In kind it is physicochemical. The conditions noted are these: pH range pH6 to pH8.
Excerpt: as §2, §1

Series [4] in a line: Solubility testing of parent and truncated peptides (protocol not stated). In kind it is physicochemical.
Excerpt: For example, the amino acid sequence of CJI-44.8 (SEQ ID NO: 132) was derived from the protein sequence of Cry j I by first identifying those regions of the parent protein with high T cell reactivity using the set of overlapping peptides 20-mers as discussed in Example 6, and shown in FIG. 13, which covered the entire sequence. […] Since these peptides were adjacent to each other in the native protein sequence and overlapped by 10 residues, peptide CJI-44 was synthesized to capture the total T cell reactivity of both peptides. CJI-44 (SEQ ID NO: 90) (FIG. 18) is a peptide 30-mer which contains all of the sequence present in the two 20-mers CJI-31 (SEQ ID NO: 54) and CJI-32 (SEQ ID NO: 56).
as §1

For another series, the system named is Arthus reaction. To be noted: Usui et al. (1990); cited from earlier work.
The next series deals with patients' plasma IgE. The experiment in a line: Direct binding assay of IgE to Cry j I, Cry j II and recombinant Cry j II (Example 18). Further details: species or system human. The method, then:
Costar assay plates were coated with Cry j I or Cry j II at 2 μg/mL or recombinant Cry j II preparation at 10 μg/mL (approximately 20% pure) in a volume of 50 μL overnight at 4° C. The coating antigens were removed and the wells were blocked with 0.5% gelatin, PVP (polyvinyl pyrolidine) 1 mg/mL in PBS, 200 μL/well for 2 hours at room temperature. The anti-Cry j I monoclonal antibody, 4B11, was serially diluted in PBS-Tween 20 starting at a 1:1000 dilution. The human plasma were serially diluted in PBS-Tween at a starting dilution of 1:2. For this set 23 plasma samples from patients symptomatic for Japanese cedar pollen allergy chosen for IgE binding analysis. The first antibody incubation proceeded overnight at 4° C. Following three washes with PBS-Tween the second antibodies were added (biotinylated goat anti-mouse Ig or goat anti-human IgE both at 1:2000) and incubated for two hours at room temperature at 100 μL/well. After washing 3 times, […]. This solution was removed and streptavidin-HRPO diluted to 1:10,000, was added at 100 μL/well. The color was allowed to develop for 2-5 minutes. The reaction was stopped by the addition of 100 μL/well of 1M phosphoric acid. Plates were read on a Microplate IL310 Autoreader (Biotek Instruments, Winooski, Vt.) with a 450 nm filter. The absorbance levels of duplicate wells were averaged. A positive binding result, indicated by a plus sign is determined to be a reading of two-fold or greater above background (no first antibody) at the second dilution of plasma ([…]).

For the next series, the system named is IgE antibodies. The conditions noted are these: Sakaguchi (1990), cited from earlier work.
Series [5] has as its system Cry j II reactive T cells. The experiment in a line: T cell proliferation assay, Cry j II primed T cell lines (Example 19). In kind it is cell-based, human. The method, then: Long term T cell lines were established by stimulation of 2×10^6 PBL/ml in bulk cultures of complete medium (RPMI-1640, 2 mM L-glutamine, 100 U/ml penicillin/streptomycin, 5×10^−5M 2-mercaptoethanol, and 10 mM HEPES supplemented with 5% heat inactivated human AB serum) with 10 μg/ml of partially purified native Cry j II for 7 days at 37° C. in a humidified 5% CO2 incubator to select for Cry j II reactive T cells. This amount of priming antigen was determined to be optimal for the activation of T cells from most Japanese cedar pollen Cry j II allergic patients. Viable cells were purified by LSM centrifugation and cultured in complete medium supplemented with 5 units recombinant human IL-2/ml and 5 units recombinant human IL-4/ml for up to three weeks until the cells no longer responded to lymphokines and were considered “rested”. The ability of the T cells to proliferate to peptides Cry j IIA (SEQ ID NO: 185) and Cry j IIB (SEQ ID NO: 186), recombinant Cry j II (rCry j II) (SEQ ID NO: 134), purified native Cry j II, was then assessed. For assay, 2×10^4 rested cells were restimulated in the presence of 2×10^4 autologous Epstein-Barr virus (EBV)-transformed B cells (prepared as described in Example 6) (gamma-irradiated with 25,000 RADS) with 2-50 ’g/ml of rCry j II (SEQ ID NO: 134), purified native Cry j II, peptides Cry j IIA (SEQ ID NO: 185) and Cry j IIB (SEQ ID NO: 186), positive control (PHA), negative control (Amb a I.1), in a volume of […] complete medium in duplicate or triplicate wells in 96-well round bottom plates for 2-4 days. […] Each well then received 1 μCi tritiated thymidine for 16-20 hours. The counts incorporated were collected onto glass fiber filter mats and processed for liquid scintillation counting. The maximum response in a titration of each peptide is expressed as the stimulation index (S.I.). The S.I. is the counts per minute (CPM) incorporated by cells in response to peptide, divided by the CPM incorporated by cells in medium only. A positivity index may be calculated by multiplying the mean S.I. (indicated above each bar in FIGS. 42 and 43) by the percentage of individuals responding to the peptide (indicated in parentheses above each bar in FIGS. 42 and 43). […]

The mark [6] stands for this setting: aqueous sodium phosphate buffer.

“Also recorded” adds a separate entry of the source. Ends that are not written are not given here.

As a reminder, the solubility is the dissolved amount per volume that the medium holds. Take DEEGAYFVSSGKYEGGNIYTKKEAFNVE [CJ1-44.8]: the solubility result in series [1] is “very soluble”; in series [3] (setting [6]) it was more than 5000 µg/mL. In addition, in series [2], the stability entry was “stable”.
With “DEENGAYFVSSGKYEGGNIYTKKEAFNVE [CJ1-44.6]”, the solubility result in series [1] is “increased solubility”.
For DENGAYFVSSGKYEGGNIYTKKEAFNAE [CJ1-44.5], the solubility result in series [1] is given as “increased solubility”.
In the case of DKEPRARYGLVHVANNNYDPWTIEEE [CJ1-24.5], in series [2], the stability entry is given as “stable”. Further, in series [3] (setting [6]), the solubility was more than 5000 µg/mL.
As to DVFYNGAYFVSSGKYEGGNIYTKKEAFNVE [CJ1-44], the solubility in series [4] (protocol not stated, read-out: solubility) is less than 5000 µg/mL.
With KSMKVTVAFNQARK [CJ1-43.50], the stability entry in series [2] was “stable”. The molecule also gave a solubility in series [3] (aqueous buffer) of more than 5000 µg/mL.
As for NGAYFVSSGKYEGGNIYTKKEAFN [CJ1-44.2], the solubility entry in series [4] (truncated analogs of CJI-44) is listed as “solubility was improved in these sequences it still did not reach the standard”.
Regarding NGAYFVSSGKYEGGNIYTKKEAFNVE [CJ1-44.1], the solubility result in series [4] (truncated analogs of CJI-44) is given as “solubility was improved in these sequences it still did not reach the standard”.

B1: Sugi basic protein (i.e., Cry j I)-pullulan conjugate: Sugi basic protein covalently linked to pullulan, Usui et al. (1990) (conjugate, UniProt P18632 22-374, looked up)
Pectate lyase 1: DNPIDSCWRGDSNWAQNRMKLADCAVGFGSSTMGGKGGDLYTVTNSDDDPVNPAPGTLRYGATRDRPLWIIFSGNMNIKLKMPMYIAGYKTFDGRGAQVYIGNGGPCVFIKRVSNVIIHGLYLYGCSTSVLGNVLINESFGVEPVHPQDGDALTLRTATNIWIDHNSFSNSSDGLVDVTLTSTGVTISNNLFFNHHKVMLLGHDDAYSDDKSMKVTVAFNQFGPNCGQRMPRARYGLVHVANNNYDPWTIYAIGGSSNPTILSEGNSFTAPNESYKKQVTIRIGCKTSSSCSNWVWQSTQDVFYNGAYFVSSGKYEGGNIYTKKEAFNVENGNATPQLTKNAGVLTCSLSKRC
modifications: pullulan conjugate
As for B1, the “ability to elicit the Arthus reaction, relative to native Sugi basic protein” value in the series on Arthus reaction is reported as “about 1,000 times lower”.

B2: purified native Cry j II: second Japanese cedar pollen allergen, purified native protein (protein)
chain: RKVEHSRHDAINIFNVEKYGAVGDGKHDCTEAFSTAWQAACKNPSAMLLVPGSKKFVVNNLFFNGPCQPHFTFKVDGIIAAYQNPASWKNNRIWLQFAKLTGFTLMGKGVIDGQGKQWWAGQCKWVNGREICNDRDRPTAIKFDFSTGLIIQGLKLMNSPEFHLVFGNCEGVKIIGISITAPRDSPNTDGIDIFASKNFHLQKNTIGTGDDCVAIGTGSSNIVIEDLICGPGHGISIGSLGRENSRAEVSYVHVNGAKFIDTQNGLRIKTWQGGSGMASHIIYENVEMINSENPILINQFYCTSASACQNQRSAVQIQDVTYKNIRGTSATAAAIQLKCSDSMPCKDIKLSDISLKLTSGKIASCLNDNANGYFSGHVIPACKNLSPSAKRKESKSHKHPKTVMVENMRAYDKGNRTRILLGSRPPNCTNKCHGCSPCKAKLVIVHRIMPQEYYPQRWICSCHGKIYHP
With B2, in the series on patients' plasma IgE (23 plasma samples, FIG. 40), the “frequency of IgE response” value is on record as “less”. In addition, the “plasma IgE binding response” value was “very strong reactivity” in the series with patients' plasma IgE (patient #1034) and “binds human IgE of some allergic patients; also recorded: lower overall response” in the series on patients' plasma IgE (patient plasma samples, FIGS. 31-33). Moreover, the “immunological cross-reactivity with Cry j I” value with IgE antibodies (Kawashima et al. (1992)) is recorded as “no immunological cross-reactivity”. The “allergic patients with IgE that only reacted with this allergen” value with IgE antibodies is 14%. In addition, the “T cell proliferative response” value is on record as “react” in series [5] (9 patients, FIG. 43) and “respond well” in series [5] (n=6 patients, FIG. 42).
